Experimental findings from publication PMC3234165 (Biochemistry, 2011) are described below.

Experiment [1] has as its target T1, sigma-2 receptor (sigma-2 sites) (Rattus norvegicus, UniProt Q5U3Y7).
T1 sequence (Q5U3Y7 1-176): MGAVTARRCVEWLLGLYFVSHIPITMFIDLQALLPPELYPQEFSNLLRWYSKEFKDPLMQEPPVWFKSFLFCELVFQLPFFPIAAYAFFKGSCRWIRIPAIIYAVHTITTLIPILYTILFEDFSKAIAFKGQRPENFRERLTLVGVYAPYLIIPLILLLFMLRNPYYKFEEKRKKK
As to the kind of experiment: Competitive displacement of [3H]-DTG binding, rat liver membranes. The following applies: for KI sigma-2 sites: rat liver membranes in the presence of 100 nM (+)-pentazocine, [3H]-DTG; for sigma-2/sigma-1: ratio from the KI value of sigma-1 and sigma-2 sites (membranes).

For another experiment, the target named is Sig-1R, sigma-1 receptor (Rattus norvegicus, UniProt Q9R0C9). As to the kind of experiment: NIMH PDSP secondary binding assay.
Sig-1R, sigma-1 receptor, sequence (Q9R0C9 whole entry): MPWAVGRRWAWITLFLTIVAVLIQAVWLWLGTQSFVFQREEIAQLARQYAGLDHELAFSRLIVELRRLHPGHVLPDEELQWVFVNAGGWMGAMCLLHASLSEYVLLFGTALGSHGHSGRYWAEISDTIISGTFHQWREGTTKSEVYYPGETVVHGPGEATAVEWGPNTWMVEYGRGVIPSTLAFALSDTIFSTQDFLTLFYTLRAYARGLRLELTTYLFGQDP
The next experiment concerns the target T2, Sig-2R, sigma-2 receptor (Rattus norvegicus, UniProt Q5U3Y7).
T2 sequence (Q5U3Y7 1-176): T1 sequence (Q5U3Y7 1-176)
As to the kind of experiment: NIMH PDSP secondary binding assay.

The target of experiment [2] is T3, 5HT1A (serotonin receptor subtype 1A) (Homo sapiens, UniProt P08908).
T3 sequence (P08908 1-422): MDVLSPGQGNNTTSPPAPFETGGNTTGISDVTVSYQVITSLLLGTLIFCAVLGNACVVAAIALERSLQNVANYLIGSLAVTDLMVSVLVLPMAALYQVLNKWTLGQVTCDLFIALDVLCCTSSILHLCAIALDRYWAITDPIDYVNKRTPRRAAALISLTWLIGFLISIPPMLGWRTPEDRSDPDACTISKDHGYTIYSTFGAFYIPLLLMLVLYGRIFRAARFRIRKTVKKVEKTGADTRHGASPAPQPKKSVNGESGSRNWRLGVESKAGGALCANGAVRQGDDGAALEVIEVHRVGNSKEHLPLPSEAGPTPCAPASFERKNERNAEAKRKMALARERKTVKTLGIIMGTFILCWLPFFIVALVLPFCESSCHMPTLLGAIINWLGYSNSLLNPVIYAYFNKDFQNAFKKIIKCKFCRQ
As to the kind of experiment: NIMH PDSP secondary binding assay. The settings on record: KI 5HT1A, NIMH PDSP; [3H]8-OH-DPAT/0.5 nM.

The target in experiment [3] is 5HT2B (serotonin receptor subtype 2B) (Homo sapiens, UniProt P41595). As to the kind of experiment: NIMH PDSP secondary binding assay.
5HT2B (serotonin receptor subtype 2B), sequence (P41595 whole entry, species assumed): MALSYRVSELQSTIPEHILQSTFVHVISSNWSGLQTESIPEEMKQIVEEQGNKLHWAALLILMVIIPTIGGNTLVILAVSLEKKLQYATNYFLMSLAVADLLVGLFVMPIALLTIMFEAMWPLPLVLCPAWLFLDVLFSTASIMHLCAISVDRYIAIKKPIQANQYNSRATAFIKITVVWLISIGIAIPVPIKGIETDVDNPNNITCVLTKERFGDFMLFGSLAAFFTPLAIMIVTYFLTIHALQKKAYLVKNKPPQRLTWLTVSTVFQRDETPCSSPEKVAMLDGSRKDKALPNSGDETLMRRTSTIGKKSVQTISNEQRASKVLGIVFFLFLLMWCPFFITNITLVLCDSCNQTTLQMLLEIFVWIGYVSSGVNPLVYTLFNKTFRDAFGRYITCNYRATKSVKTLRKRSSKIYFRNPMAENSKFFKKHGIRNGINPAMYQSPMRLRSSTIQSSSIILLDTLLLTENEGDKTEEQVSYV
Experiment [4] concerns the target 5HT7 (serotonin receptor subtype 7) (Homo sapiens, UniProt P34969). As to the kind of experiment: NIMH PDSP secondary binding assay.
In experiment [5] the target is T4, α-1A (α-adrenergic receptor subtype 1A) (Homo sapiens, UniProt P35348).
T4 sequence (P35348 1-466): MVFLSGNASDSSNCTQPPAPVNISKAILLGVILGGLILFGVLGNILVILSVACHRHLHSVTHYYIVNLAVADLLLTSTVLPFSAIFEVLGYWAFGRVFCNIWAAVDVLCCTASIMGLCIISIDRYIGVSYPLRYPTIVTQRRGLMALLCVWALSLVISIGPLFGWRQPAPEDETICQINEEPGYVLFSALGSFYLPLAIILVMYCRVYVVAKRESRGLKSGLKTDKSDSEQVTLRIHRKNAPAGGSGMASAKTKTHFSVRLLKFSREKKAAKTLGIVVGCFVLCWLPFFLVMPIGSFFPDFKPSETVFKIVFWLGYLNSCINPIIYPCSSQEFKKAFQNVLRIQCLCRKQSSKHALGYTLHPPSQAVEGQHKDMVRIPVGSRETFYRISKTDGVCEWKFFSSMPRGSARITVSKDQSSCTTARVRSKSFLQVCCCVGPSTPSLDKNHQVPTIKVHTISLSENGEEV
As to the kind of experiment: NIMH PDSP secondary binding assay.

For experiment [6], the target named is T5, α-1D (α-adrenergic receptor subtype 1D) (Homo sapiens, UniProt P25100).
T5 sequence (P25100 1-572): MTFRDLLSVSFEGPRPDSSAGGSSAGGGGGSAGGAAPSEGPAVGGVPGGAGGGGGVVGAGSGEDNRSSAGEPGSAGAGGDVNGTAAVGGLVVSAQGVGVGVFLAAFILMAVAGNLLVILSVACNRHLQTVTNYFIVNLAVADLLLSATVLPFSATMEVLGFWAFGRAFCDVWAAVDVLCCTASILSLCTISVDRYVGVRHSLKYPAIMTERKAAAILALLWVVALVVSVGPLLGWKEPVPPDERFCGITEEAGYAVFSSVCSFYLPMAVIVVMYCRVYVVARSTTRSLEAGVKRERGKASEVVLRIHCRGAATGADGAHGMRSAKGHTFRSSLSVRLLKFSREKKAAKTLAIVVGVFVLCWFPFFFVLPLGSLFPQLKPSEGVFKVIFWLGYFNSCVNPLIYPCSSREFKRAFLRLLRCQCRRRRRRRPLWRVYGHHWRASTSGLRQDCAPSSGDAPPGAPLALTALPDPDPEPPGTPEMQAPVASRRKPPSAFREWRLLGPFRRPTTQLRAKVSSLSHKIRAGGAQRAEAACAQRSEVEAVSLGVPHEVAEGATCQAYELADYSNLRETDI
As to the kind of experiment: NIMH PDSP secondary binding assay.

In experiment [7] the target is β-2 (β-adrenergic receptor subtype 2) (Homo sapiens, UniProt P07550). As to the kind of experiment: NIMH PDSP secondary binding assay.
β-2 (β-adrenergic receptor subtype 2), sequence (P07550 whole entry): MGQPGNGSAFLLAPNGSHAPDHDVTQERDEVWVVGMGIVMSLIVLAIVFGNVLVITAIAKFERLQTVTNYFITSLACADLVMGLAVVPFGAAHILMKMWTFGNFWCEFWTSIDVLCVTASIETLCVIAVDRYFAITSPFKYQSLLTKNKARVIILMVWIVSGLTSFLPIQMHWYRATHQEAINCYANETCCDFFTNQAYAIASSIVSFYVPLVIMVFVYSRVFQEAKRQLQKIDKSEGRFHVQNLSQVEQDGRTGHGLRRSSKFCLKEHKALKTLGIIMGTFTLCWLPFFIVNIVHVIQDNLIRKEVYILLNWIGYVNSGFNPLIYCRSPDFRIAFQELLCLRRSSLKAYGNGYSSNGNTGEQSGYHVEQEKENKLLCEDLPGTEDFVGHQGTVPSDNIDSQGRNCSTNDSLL
Experiment [8] addresses β-3 (β-adrenergic receptor subtype 3) (Homo sapiens, UniProt P13945). As to the kind of experiment: NIMH PDSP secondary binding assay.
Experiment [9] deals with D1 (dopamine receptor type 1) (Homo sapiens, UniProt P21728). As to the kind of experiment: NIMH PDSP secondary binding assay.
D1 (dopamine receptor type 1), sequence (P21728 whole entry): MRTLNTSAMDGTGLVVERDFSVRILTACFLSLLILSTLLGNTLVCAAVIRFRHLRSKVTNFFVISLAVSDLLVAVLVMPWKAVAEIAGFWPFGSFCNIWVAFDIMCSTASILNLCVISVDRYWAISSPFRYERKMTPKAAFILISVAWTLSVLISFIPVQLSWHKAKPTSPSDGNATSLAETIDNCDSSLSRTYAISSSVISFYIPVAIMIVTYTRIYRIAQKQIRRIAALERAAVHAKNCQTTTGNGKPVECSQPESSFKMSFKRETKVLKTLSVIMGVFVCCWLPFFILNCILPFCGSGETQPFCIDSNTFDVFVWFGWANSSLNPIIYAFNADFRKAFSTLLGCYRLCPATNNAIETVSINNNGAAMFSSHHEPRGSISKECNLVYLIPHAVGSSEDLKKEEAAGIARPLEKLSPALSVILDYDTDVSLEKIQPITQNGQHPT
Experiment [10] concerns the target M1 (muscarinic acetylcholine receptor type 1) (Homo sapiens, UniProt P11229). As to the kind of experiment: NIMH PDSP secondary binding assay.
The target in experiment [11] is M5 (muscarinic acetylcholine receptor type 5) (Homo sapiens, UniProt P08912). As to the kind of experiment: NIMH PDSP secondary binding assay.
M5 (muscarinic acetylcholine receptor type 5), sequence (P08912 whole entry): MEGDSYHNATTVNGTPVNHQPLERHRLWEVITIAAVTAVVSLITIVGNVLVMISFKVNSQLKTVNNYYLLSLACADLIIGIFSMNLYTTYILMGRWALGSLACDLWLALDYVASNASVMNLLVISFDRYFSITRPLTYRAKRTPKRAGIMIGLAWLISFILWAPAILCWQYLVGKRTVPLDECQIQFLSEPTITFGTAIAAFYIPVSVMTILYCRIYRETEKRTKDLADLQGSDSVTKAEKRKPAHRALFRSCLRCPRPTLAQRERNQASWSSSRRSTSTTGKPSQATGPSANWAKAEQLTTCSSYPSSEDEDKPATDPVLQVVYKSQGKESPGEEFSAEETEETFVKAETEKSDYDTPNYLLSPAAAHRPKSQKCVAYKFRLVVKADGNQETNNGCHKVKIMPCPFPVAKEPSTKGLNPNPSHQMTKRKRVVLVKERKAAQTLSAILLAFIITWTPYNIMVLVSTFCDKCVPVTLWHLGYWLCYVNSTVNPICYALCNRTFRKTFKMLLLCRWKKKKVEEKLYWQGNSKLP
The target of experiment [12] is SERT (serotonin transporter) (Homo sapiens, UniProt P31645). As to the kind of experiment: NIMH PDSP secondary binding assay.
SERT (serotonin transporter), sequence (P31645 whole entry, species assumed): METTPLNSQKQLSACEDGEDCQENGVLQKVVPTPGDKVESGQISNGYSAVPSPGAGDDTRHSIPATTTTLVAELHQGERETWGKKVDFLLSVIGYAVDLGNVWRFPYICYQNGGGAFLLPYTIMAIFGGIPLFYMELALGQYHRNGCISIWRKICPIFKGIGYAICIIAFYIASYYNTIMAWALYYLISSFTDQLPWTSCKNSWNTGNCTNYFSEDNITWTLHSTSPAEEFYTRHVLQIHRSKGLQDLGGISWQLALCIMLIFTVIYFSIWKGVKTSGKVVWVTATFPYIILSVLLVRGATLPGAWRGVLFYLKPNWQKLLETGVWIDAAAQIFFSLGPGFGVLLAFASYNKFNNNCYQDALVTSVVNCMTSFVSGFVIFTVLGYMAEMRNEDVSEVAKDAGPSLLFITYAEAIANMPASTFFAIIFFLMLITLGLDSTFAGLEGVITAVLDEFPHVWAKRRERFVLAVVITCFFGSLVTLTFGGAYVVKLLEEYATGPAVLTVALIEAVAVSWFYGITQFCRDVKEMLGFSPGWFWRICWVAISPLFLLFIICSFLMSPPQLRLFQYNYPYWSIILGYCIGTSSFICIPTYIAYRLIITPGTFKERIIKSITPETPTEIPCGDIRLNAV
Another experiment relates to MDA-MB-231. As to the kind of experiment: Multiplex cytotoxicity assay. Type of experiment: cell-based. The settings on record: Homo sapiens, MDA-MB-231, read-out: IC50 MDA-MB-231.
In a further experiment the test system is MCF-7. As to the kind of experiment: Multiplex cytotoxicity assay. Type of experiment: cell-based. The following applies: Homo sapiens, MCF7, read-out: IC50 MCF-7.
For a further experiment, the system named is MCF-10A. As to the kind of experiment: Multiplex cytotoxicity assay. Type of experiment: cell-based. The following applies: Homo sapiens, read-out: IC50 MCF-10A.
In another experiment the test system is A549. As to the kind of experiment: Multiplex cytotoxicity assay. Type of experiment: cell-based. The settings on record: Homo sapiens, A549, read-out: IC50 A549.
Another experiment has as its system SK-OV-3. As to the kind of experiment: Multiplex cytotoxicity assay. The following applies: Homo sapiens, SK-OV-3, read-out: IC50 SK-OV-3. Type of experiment: cell-based.
A further experiment has as its system caspases 3/7, 8, and 9. As to the kind of experiment: Caspase activation potential. Type of experiment: cell-based. The following applies: data not shown.

SMILES strings stand for the structures. Some results are limits rather than exact numbers.

β-3 (β-adrenergic receptor subtype 3), sequence (P13945 whole entry): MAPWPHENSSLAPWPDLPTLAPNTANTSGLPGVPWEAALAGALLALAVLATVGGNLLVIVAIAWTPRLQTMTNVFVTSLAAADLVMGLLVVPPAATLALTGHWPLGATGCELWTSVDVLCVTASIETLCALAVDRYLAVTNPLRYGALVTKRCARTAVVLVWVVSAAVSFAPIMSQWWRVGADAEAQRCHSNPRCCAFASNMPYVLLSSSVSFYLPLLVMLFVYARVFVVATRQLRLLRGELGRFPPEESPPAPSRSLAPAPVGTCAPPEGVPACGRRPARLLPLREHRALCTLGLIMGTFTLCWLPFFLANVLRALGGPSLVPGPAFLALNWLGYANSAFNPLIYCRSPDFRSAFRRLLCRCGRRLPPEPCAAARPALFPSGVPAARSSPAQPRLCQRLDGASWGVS
M1 (muscarinic acetylcholine receptor type 1), sequence (P11229 whole entry): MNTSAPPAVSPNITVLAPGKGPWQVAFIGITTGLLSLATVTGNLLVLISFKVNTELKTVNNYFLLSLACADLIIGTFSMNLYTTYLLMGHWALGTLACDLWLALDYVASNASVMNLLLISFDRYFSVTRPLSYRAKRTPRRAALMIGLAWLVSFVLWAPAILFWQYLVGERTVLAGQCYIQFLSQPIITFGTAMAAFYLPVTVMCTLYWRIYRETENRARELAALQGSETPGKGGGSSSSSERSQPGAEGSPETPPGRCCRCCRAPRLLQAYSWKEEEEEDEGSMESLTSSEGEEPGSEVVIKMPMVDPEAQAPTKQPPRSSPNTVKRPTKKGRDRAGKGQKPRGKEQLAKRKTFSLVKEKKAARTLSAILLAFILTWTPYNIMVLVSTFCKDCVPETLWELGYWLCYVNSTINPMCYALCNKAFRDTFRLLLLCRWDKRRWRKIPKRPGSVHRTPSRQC
5HT7 (serotonin receptor subtype 7), sequence (P34969 whole entry, species assumed): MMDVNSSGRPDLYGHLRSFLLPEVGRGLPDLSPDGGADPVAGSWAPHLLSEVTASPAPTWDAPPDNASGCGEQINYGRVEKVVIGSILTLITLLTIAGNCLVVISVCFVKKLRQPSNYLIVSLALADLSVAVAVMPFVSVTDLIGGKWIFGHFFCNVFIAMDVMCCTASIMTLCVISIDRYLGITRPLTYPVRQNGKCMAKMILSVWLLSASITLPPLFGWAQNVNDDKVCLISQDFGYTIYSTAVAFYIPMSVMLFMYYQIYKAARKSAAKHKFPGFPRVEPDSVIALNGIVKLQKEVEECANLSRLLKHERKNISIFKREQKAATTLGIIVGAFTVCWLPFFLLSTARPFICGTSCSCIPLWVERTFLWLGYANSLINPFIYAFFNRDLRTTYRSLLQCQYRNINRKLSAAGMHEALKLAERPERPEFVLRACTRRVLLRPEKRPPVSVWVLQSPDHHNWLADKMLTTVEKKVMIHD

With `CCCCCCCNCCCc1ccccc1` [2a, N-(3-Phenylpropyl)heptan-1-amine], the “KI sigma-2 sites” value in experiment [1] is recorded as “nanomolar affinities”. Moreover, the sigma-2/sigma-1 in [1] came out at 2. Further, the Ki was 0.09 µM at Sig-1R, sigma-1 receptor; 0.25 µM on Sig-2R, sigma-2 receptor; 0.13 µM in experiment [2]; greater than 10 µM in experiment [3]; greater than 10 µM in experiment [4]; greater than 10 µM in experiment [5]. Also, the Ki in experiment [6], in experiment [7], in experiment [8], in [9], in experiment [10] and in [11] was greater than 10 µM throughout. Also, the Ki in experiment [12] is greater than 10 µM. The IC50 in the experiment on MDA-MB-231 is 33 ± 2 µM; in the experiment on MCF-7, 20 ± 1 µM; in the experiment with MCF-10A, 70 ± 5 µM; with A549, 83 ± 11 µM; in the experiment on SK-OV-3 it was greater than 100 µM. The “activation of caspases 3/7, 8, and 9” value in the experiment on caspases 3/7, 8, and 9 was “did not activate”.

Consider `CCCCCCCCCCCCNCCCc1ccccc1` [3a, N-(3-Phenylpropyl)dodecan-1-amine], for which the “KI sigma-2 sites” value in [1] is reported as “micromolar affinities”. The sigma-2/sigma-1 in [1] is 0.4. Moreover, the Ki on Sig-1R, sigma-1 receptor is 1.5 µM; on Sig-2R, sigma-2 receptor, 3.6 µM; in experiment [2], greater than 10 µM; in [3], greater than 10 µM; in [4] it was greater than 10 µM; in experiment [5], greater than 10 µM. For the same molecule, the Ki in experiment [6], in experiment [7], in [8], in experiment [9], in experiment [10] and in experiment [11] was greater than 10 µM throughout. The molecule also yielded a Ki in experiment [12] greater than 10 µM. Further, the IC50 with MDA-MB-231 stood at 54 ± 3 µM; in the experiment with MCF-7, 50 ± 18 µM; in the experiment on MCF-10A, 53 ± 18 µM; in the experiment on A549, 87 ± 70 µM; with SK-OV-3 it was 60 ± 7 µM. Further, the “activation of caspases 3/7, 8, and 9” value in the experiment with caspases 3/7, 8, and 9 is “did not activate”.

Turning to `CCCCCCCCCCCCNCCCc1ccc([N+](=O)[O-])cc1` [3b, N-(3-(4-Nitrophenyl)propyl)dodecan-1-amine], the “KI sigma-2 sites” value in experiment [1] was “micromolar affinities”. In addition, the sigma-2/sigma-1 in experiment [1] came out at 0.5. Also, the Ki on Sig-1R, sigma-1 receptor is 0.2 µM; on Sig-2R, sigma-2 receptor it was 0.27 µM; in experiment [2], 0.04 µM; in [3], 7.9 µM; in experiment [4], greater than 10 µM; in experiment [5], greater than 10 µM. In addition, the Ki in experiment [6] was 9 µM; in experiment [7], greater than 10 µM; in experiment [8] it was greater than 10 µM; in [9] it was greater than 10 µM; in experiment [10], greater than 10 µM; in [11] it was 3.6 µM. Also, the Ki in [12] turned out to be 0.7 µM. For the same molecule, the IC50 in the experiment with MDA-MB-231 amounted to 15 ± 1 µM; with MCF-7 it was 12 ± 1 µM; in the experiment on MCF-10A, 15 ± 1 µM; in the experiment with A549, 29 ± 1 µM; with SK-OV-3 it was 16 ± 1 µM. Moreover, the “activation of caspases 3/7, 8, and 9” value with caspases 3/7, 8, and 9 is on record as “did not activate”.

Usually Ki stands for the dissociation constant of the complex between target and ligand, obtained from inhibition or displacement. Low values mean higher affinity, high ones lower affinity. The IC50 is the concentration needed to halve the response being measured.
